This is an account of results in US7713994B2 (Wyeth LLC, priority 2005, dated 2010).

One assay concerns the target T1, cyclin D1/cdk 4 enzyme (Homo sapiens, UniProt P11802).
T1 construct: made in house; host or cells: Sf9 insect cells, recombinant baculovirus
In words: CDK4 ELISA kinase assay (phospho-Rb ser 795 detection). The format is biochemical. Particulars: In Vitro Enzyme Assays, 200 μM ATP, read-out: CDK4 IC50. The procedure, abridged:
(§1)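 Inhibition was derived from A450 relative to control wells lacking compound, following an anti-phospho-Rb Ser795 sandwich of HRP detection. The reactions combined coated GST-Rb fragment, 200 μM ATP and baculovirus-expressed cyclin/CDK enzymes, incubated for 1 h at 30° C.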

In a further assay the test system is MCF-7. In words: Cytotoxicity assay (SRB), MCF-7. Format: cell-based. Conditions: Homo sapiens, MCF7, 72 h, MCF-7 cells, 3 days, SRB; read-out: In Vitro Cellular Activity IC50 MCF-7. The procedure, abridged:
(§2)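 Cells were seeded overnight in RPMI 1640 with 5% FBS at 37 °C, 7% CO2 (12000/well BT474, 4000 HCT-116, 6000 LoVo, 6000 MCF-7), then exposed to compound dilutions for 3 days (6 days for BT474). Survival versus untreated controls was measured by TCA fixation and SRB staining at 540 nm.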

The test system of the next assay is LoVo. In words: Cytotoxicity assay (SRB), LoVo. Format: cell-based. Particulars: Homo sapiens, LoVo, 72 h, LoVo cells, 3 days, SRB; read-out: In Vitro Cellular Activity IC50 LOVO. The procedure, abridged:
as §2

In another assay the target is T2, cyclin B/CDK1 enzyme (Homo sapiens, UniProt P06493).
T2 construct: purchased New England BioLabs; host or cells: Sf9 insect cells, recombinant baculovirus
T2 sequence (P06493 whole entry): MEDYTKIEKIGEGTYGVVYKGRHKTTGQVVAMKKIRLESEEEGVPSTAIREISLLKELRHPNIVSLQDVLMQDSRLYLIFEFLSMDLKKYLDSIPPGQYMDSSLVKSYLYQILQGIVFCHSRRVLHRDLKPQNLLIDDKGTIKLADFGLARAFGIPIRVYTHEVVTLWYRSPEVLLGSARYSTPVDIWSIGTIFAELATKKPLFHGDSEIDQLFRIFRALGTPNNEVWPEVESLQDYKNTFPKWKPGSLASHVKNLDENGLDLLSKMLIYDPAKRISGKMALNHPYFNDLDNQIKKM
T2 sequence (P14635 whole entry partner): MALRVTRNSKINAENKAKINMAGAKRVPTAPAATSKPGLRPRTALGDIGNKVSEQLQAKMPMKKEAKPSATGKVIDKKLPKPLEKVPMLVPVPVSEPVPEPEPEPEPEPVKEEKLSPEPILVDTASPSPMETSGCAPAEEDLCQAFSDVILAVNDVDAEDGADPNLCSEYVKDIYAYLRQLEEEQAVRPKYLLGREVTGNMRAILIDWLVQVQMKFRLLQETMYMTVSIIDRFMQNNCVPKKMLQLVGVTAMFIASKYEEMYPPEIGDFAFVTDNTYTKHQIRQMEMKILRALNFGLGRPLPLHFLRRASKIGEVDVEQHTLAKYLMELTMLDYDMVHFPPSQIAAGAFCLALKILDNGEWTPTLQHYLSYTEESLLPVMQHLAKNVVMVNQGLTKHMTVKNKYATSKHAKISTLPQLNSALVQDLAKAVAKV
As to the kind of experiment: CDK1 ELISA kinase assay (phospho-Rb ser 795 detection). The format is biochemical. Particulars: In Vitro Enzyme Assays, read-out: CDK1 IC50. The method, boiled down: as §1

The next assay has as its system BT474. In words: Cytotoxicity assay (SRB), BT474. The format is cell-based. Particulars: Homo sapiens, BT-474, 144 h, BT474 cells, 6 days, SRB; read-out: In Vitro Cellular Activity IC50 BT474. The procedure, abridged:
as §2

The target of the next assay is T3, cyclin E/CDK2 enzyme (Homo sapiens, UniProt P24941).
T3 construct: made in house; host or cells: Sf9 insect cells, recombinant baculovirus
As to the kind of experiment: CDK2 ELISA kinase assay (phospho-Rb ser 795 detection). Format: biochemical. Particulars: In Vitro Enzyme Assays, read-out: CDK2 IC50. The method, boiled down:
as §1

For the next assay, the system named is HCT-116. As to the kind of experiment: Cytotoxicity assay (SRB), HCT-116. Conditions: Homo sapiens, HCT-116, 72 h, HCT116 cells, 3 days, SRB; read-out: In Vitro Cellular Activity IC50 HCT116. The format is cell-based. The procedure, abridged:
as §2

T1 sequence (P11802 whole entry, species assumed): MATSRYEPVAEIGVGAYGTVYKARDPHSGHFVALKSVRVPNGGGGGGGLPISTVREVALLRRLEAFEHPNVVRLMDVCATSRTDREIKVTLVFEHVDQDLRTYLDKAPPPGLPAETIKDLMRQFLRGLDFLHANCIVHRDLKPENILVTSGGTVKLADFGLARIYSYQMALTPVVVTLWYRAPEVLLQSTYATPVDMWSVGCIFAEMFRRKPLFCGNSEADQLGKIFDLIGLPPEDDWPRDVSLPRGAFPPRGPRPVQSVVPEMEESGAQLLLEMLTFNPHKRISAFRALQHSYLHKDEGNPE
T1 sequence (P24385 whole entry partner, species assumed): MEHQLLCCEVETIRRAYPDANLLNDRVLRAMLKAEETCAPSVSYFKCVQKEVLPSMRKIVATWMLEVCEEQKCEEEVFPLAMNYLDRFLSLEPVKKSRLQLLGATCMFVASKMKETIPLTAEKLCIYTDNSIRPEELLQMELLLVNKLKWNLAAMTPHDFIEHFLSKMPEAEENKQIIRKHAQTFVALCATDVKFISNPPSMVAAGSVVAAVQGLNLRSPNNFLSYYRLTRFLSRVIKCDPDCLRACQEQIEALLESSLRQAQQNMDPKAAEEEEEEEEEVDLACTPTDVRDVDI

As a reminder, the IC50 is the point on the concentration scale where inhibition reaches its midpoint. `CC(CO)N1CCN(c2ccc(N/C=C3\C(=O)NC(=O)c4ccc(I)cc43)cc2)CC1` (centres unmarked) [Example 398, (4Z)-4-[({4-[4-(2-Hydroxy-1-methylethyl)piperazin-1-yl]phenyl}amino)methylene]-6-iodoisoquinoline-1,3(2H,4H)-dione]: the concentration for half-maximal inhibition (IC50) is 0.18 µM at cyclin D1/cdk 4 enzyme; 4.4 µM in the assay with MCF-7; 6.3 µM with LoVo; 21.6 µM at cyclin B/CDK1 enzyme; 6.19 µM in the assay with BT474; over 50 µM at cyclin E/CDK2 enzyme. Further, the IC50 in the assay with HCT-116 amounted to 2.3 µM.
Turning to `COCC(C)N1CCN(c2ccc(N/C=C3\C(=O)NC(=O)c4ccc(I)cc43)cc2)CC1` (centres unmarked) [Example 399, (4Z)-6-Iodo-4-[({4-[4-(2-methoxy-1-methylethyl)piperazin-1-yl]phenyl}amino)methylene]isoquinoline-1,3(2H,4H)-dione], the IC50 on cyclin D1/cdk 4 enzyme was 0.34 µM; in the assay on MCF-7, 5.4 µM; with LoVo it was 7 µM; at cyclin B/CDK1 enzyme, over 50 µM; with BT474 it was 7.57 µM; at cyclin E/CDK2 enzyme, over 50 µM. Moreover, the IC50 in the assay on HCT-116 was 3 µM.
Take `CC(CN(C)C)N1CCN(c2ccc(N/C=C3\C(=O)NC(=O)c4ccc(I)cc43)cc2)CC1` (centres unmarked) [Example 400, (4Z)-4-{[(4-{4-[2-(Dimethylamino)-1-methylethyl]piperazin-1-yl}phenyl)amino]methylene}-6-iodoisoquinoline-1,3(2H,4H)-dione]: the IC50 at cyclin D1/cdk 4 enzyme was 0.34 µM; with MCF-7 it was 8.7 µM; in the assay on LoVo it was 8.6 µM; at cyclin B/CDK1 enzyme, over 50 µM; in the assay on BT474 it was 9.33 µM; at cyclin E/CDK2 enzyme it was over 50 µM. Further, the IC50 in the assay on HCT-116 came to 2.9 µM.
Regarding `O=C1NC(=O)c2ccc(I)cc2/C1=C/Nc1ccc(N2CCN(CCO)CC2)cc1` [Example 401, (4Z)-4-[({4-[4-(2-Hydroxyethyl)piperazin-1-yl]phenyl}amino)methylene]-6-iodoisoquinoline-1,3(2H,4H)-dione], the 50% inhibitory concentration (IC50) was 0.47 µM at cyclin D1/cdk 4 enzyme; 5.1 µM with MCF-7; 6.7 µM in the assay on LoVo; 23.1 µM on cyclin B/CDK1 enzyme; 4.45 µM in the assay on BT474; over 50 µM at cyclin E/CDK2 enzyme. The IC50 in the assay with HCT-116 was 2.6 µM.
Regarding `CN(C)C/C=C/C(=O)N1CCCC1c1ccc(N/C=C2\C(=O)NC(=O)c3ccc(I)cc32)cc1` (centres unmarked) [Example 402, 4-({4-[1-(4-Dimethylamino-but-2-enoyl)-pyrrolidin-2-yl]-phenylamino}-methylene)-6-iodo-4H-isoquinoline-1,3-dione], the IC50 at cyclin D1/cdk 4 enzyme is 2.9 µM; in the assay with MCF-7, 7.6 µM; in the assay on LoVo, 6 µM; on cyclin B/CDK1 enzyme, over 50 µM; in the assay with BT474, 7.1 µM; at cyclin E/CDK2 enzyme, over 50 µM. Further, in the assay on HCT-116, the IC50 came to 4 µM.
Turning to `O=C1NC(=O)c2ccc(-c3ccsc3)cc2/C1=C/Nc1ccc(C2CC=CCN2)cc1` (centres unmarked) [Example 404, 4-{[4-(1,2,3,6-Tetrahydro-pyridin-2-yl)-phenylamino]-methylene}-6-thiophen-3-yl-4H-isoquinoline-1,3-dione], the IC50 on cyclin D1/cdk 4 enzyme worked out at 0.1 µM; with MCF-7, 7.3 µM; in the assay with LoVo it was 3.1 µM; at cyclin B/CDK1 enzyme, 25.3 µM; in the assay on BT474 it was 3.1 µM; at cyclin E/CDK2 enzyme, 14.4 µM. The IC50 with HCT-116 was 1.6 µM.
Take `O=C1NC(=O)c2ccc(I)cc2/C1=C/Nc1ccc(N2CCNCC2)nc1` [Example 410, (4Z)-6-Iodo-4-{[(6-piperazin-1-ylpyridin-3-yl)amino]methylene}isoquinoline-1,3(2H,4H)-dione]: the IC50 on cyclin D1/cdk 4 enzyme was 2.1 µM; in the assay with MCF-7, 5.1 µM; in the assay with LoVo it was 6.8 µM; at cyclin B/CDK1 enzyme, 25.3 µM; in the assay with BT474, 2.3 µM; on cyclin E/CDK2 enzyme, 17.6 µM. In addition, in the assay with HCT-116, the IC50 was 2.8 µM.
As for `CCOC[C@@H]1CCCN1Cc1ccc(N/C=C2\C(=O)NC(=O)c3ccc(I)cc32)cc1` [Example 411, 4-{[4-(2-Ethoxymethyl-pyrrolidin-1-ylmethyl)-phenylamino]-methylene}-6-iodo-4H-isoquinoline-1,3-dione], the IC50 at cyclin D1/cdk 4 enzyme was 0.7 µM; in the assay with MCF-7, 1.6 µM; with LoVo, 3.5 µM; at cyclin B/CDK1 enzyme it was over 50 µM; in the assay on BT474, 0.45 µM; at cyclin E/CDK2 enzyme it was over 50 µM. Also, in the assay on HCT-116, the IC50 was 3.8 µM.
For the compound `CN(C)CC1CCCN1c1ccc(N/C=C2\C(=O)NC(=O)c3ccc(I)cc32)cc1F` (centres unmarked) [Example 412, 4-{[4-(2-Dimethylaminomethyl-pyrrolidin-1-yl)-3-fluoro-phenylamino]-methylene}-6-iodo-4H-isoquinoline-1,3-dione], the IC50 on cyclin D1/cdk 4 enzyme was 3.3 µM; in the assay on MCF-7, 4.3 µM; in the assay on LoVo, 3.2 µM; at cyclin B/CDK1 enzyme, over 50 µM; with BT474, 5.6 µM; at cyclin E/CDK2 enzyme, over 50 µM. For the same compound, the IC50 with HCT-116 amounted to 1.8 µM.
For the compound `CC(C)N1CCN(c2ccc(N/C=C3\C(=O)NC(=O)c4ccc(I)cc43)cn2)CC1` [Example 413], the half-inhibitory concentration (IC50) at cyclin D1/cdk 4 enzyme was 0.19 µM; with MCF-7, 5.8 µM; in the assay with LoVo it was 3.3 µM; at cyclin B/CDK1 enzyme it was over 50 µM; in the assay on BT474, 5 µM; on cyclin E/CDK2 enzyme, over 50 µM. For the same compound, the IC50 in the assay on HCT-116 was found to be 1.9 µM.
In the case of `CCN1CCN(c2ccc(N/C=C3\C(=O)NC(=O)c4ccc(I)cc43)cn2)CC1` [Example 414, (4Z)-4-({[6-(4-Ethylpiperazin-1-yl)pyridin-3-yl]amino}methylene)-6-iodoisoquinoline-1,3(2H,4H)-dione], the IC50 was 0.5 µM on cyclin D1/cdk 4 enzyme; 6 µM with MCF-7; 6.2 µM in the assay on LoVo; over 50 µM on cyclin B/CDK1 enzyme; 6.2 µM in the assay with BT474; over 50 µM at cyclin E/CDK2 enzyme. In addition, the IC50 in the assay with HCT-116 was 2.4 µM.
Consider `O=C1NC(=O)c2ccc(I)cc2/C1=C/Nc1ccc(N2CCN(CC3CC3)CC2)nc1` [Example 415, (4Z)-4-[({6-[4-(Cyclopropylmethyl)piperazin-1-yl]pyridin-3-yl}amino)methylene]-6-iodoisoquinoline-1,3(2H,4H)-dione], for which the IC50 was 1.5 µM at cyclin D1/cdk 4 enzyme; 3.6 µM with MCF-7; 2 µM in the assay on LoVo; over 50 µM on cyclin B/CDK1 enzyme; 2.9 µM in the assay with BT474; over 50 µM on cyclin E/CDK2 enzyme. The IC50 in the assay on HCT-116 is 1.2 µM.
Take `CCN1CCN(c2ccc(N/C=C3\C(=O)NC(=O)c4ccc(-c5ccoc5)cc43)cn2)CC1` [Example 416, (4Z)-4-({[6-(4-Ethylpiperazin-1-yl)pyridin-3-yl]amino}methylene)-6-(3-furyl)isoquinoline-1,3(2H,4H)-dione]: the IC50 was 0.13 µM at cyclin D1/cdk 4 enzyme; 6.2 µM in the assay on MCF-7; 3.1 µM in the assay on LoVo; over 50 µM at cyclin B/CDK1 enzyme; 2.5 µM in the assay on BT474; over 50 µM at cyclin E/CDK2 enzyme. Also, the IC50 with HCT-116 was 2.7 µM.
On to `CC(C)N1CCN(c2ccc(N/C=C3\C(=O)NC(=O)c4ccc(-c5ccsc5)cc43)cn2)CC1` [Example 417, (4Z)-4-({[6-(4-Isopropylpiperazin-1-yl)pyridin-3-yl]amino}methylene)-6-(3-thienyl)isoquinoline-1,3(2H,4H)-dione], for which the IC50 was 0.03 µM on cyclin D1/cdk 4 enzyme; 3.2 µM in the assay with MCF-7; 3.1 µM in the assay with LoVo; over 50 µM at cyclin B/CDK1 enzyme; 2.8 µM in the assay with BT474; over 50 µM at cyclin E/CDK2 enzyme. The IC50 with HCT-116 was 1.3 µM.
